# Reference: patent publication US4720546A (priority 1984, dated 1988)
# Key:
# [1] = in vivo; settings: mouse, po
# [2] = test system: Histoplasma capsulatum; assay: microbe, parasite or virus in culture; format: cell-based; settings: 168 h, read-out: MIC values, H. capsulatum
# [3] = test system: Candida albicans; assay: fungistatic activity test in Casiton agar test tubes (MIC), Candida albicans; format: cell-based; settings: 48 h, read-out: MIC values, C. albicans
SMILES,LD50 [1] [mg/kg],MIC [2] [µg/mL],MIC [3] [µg/mL]
"Clc1ccc([C@@]2(Cn3ccnc3)OC[C@H](COc3ccc(N4CCSCC4)cc3)O2)c(Cl)c1 (relative stereo) [CH CH 0, cis-4-[4-[[2-(2,4-dichlorophenyl)-2-[(imidazol-1-yl)methyl]-1,3-dioxolan-4-yl]methoxy]phenyl]tetrahydro-4H-1,4-thiazine]",~1000,10,1 to 100
"[O-][S+]1CCN(c2ccc(OC[C@H]3CO[C@](Cn4ccnc4)(c4ccc(Cl)cc4Cl)O3)cc2)CC1 (relative stereo) [CH CH 1, cis-4-[4-[[2-(2,4-dichlorophenyl)-2-[(imidazol-1-yl)methyl]-1,3-dioxolan-4-yl]methoxy]-phenyl]-tetrahydro-4H-1,4-thiazine 1-oxide]",~1000,10,1 to 100
"O=S1(=O)CCN(c2ccc(OC[C@H]3CO[C@](Cn4ccnc4)(c4ccc(Cl)cc4Cl)O3)cc2)CC1 (relative stereo) [CH CH 2, cis-4-[4-[[2-(2,4-dichlorophenyl)-2-[(imidazol-1-yl)methyl]-1,3-dioxolan-4-yl]methoxy]phenyl]-tetrahydro-4H-1,4-thiazine 1,1-dioxide]",≥ 4000,1,0.1 to 1
"Clc1ccc([C@@]2(Cn3cncn3)OC[C@H](COc3ccc(N4CCSCC4)cc3)O2)c(Cl)c1 (relative stereo) [CH N 0, cis-4-[4-[[2-(2,4-dichlorophenyl)-2-[(1H-1,2,4-triazol-1-yl)methyl]-1,3-dioxolan-4-yl]methoxy]phenyl]-tetrahydro-4H-1,4-thiazine]",≥ 5000,10,0.1 to 1
"[O-][S+]1CCN(c2ccc(OC[C@H]3CO[C@](Cn4cncn4)(c4ccc(Cl)cc4Cl)O3)cc2)CC1 (relative stereo) [CH N 1, cis-4-[4-[[2-(2,4-dichlorophenyl)-2-[(1H-1,2,4-triazol-1-yl)methyl]-1,3-dioxolan-4-yl]methoxy]phenyl]-tetrahydro-4H-1,4-thiazine 1-oxide]",~4000,100,1 to 100
"O=S1(=O)CCN(c2ccc(OC[C@H]3CO[C@](Cn4cncn4)(c4ccc(Cl)cc4Cl)O3)cc2)CC1 (relative stereo) [CH N 2, cis-4-[4-[[2-(2,4-dichlorophenyl)-2-[(1H-1,2,4-triazol-1-yl)methyl]-1,3-dioxolan-4-yl]methoxy]phenyl]-tetrahydro-4H-1,4-thiazine 1,1-dioxide]",≥ 5000,1,0.1 to 10
"O=S1(=O)CCN(c2ccc(OC[C@H]3CO[C@](Cn4cnnc4)(c4ccc(Cl)cc4Cl)O3)cc2)CC1 (relative stereo) [N CH 2, cis-4-[4-[[2-(2,4-dichlorophenyl)-2-[(4H-1,2,4-triazol-4-yl)methyl]-1,3-dioxolan--4-yl]methoxy]phenyl]-tetrahydro-4H-1,4-thiazine 1,1-dioxide]",≥ 4000,> 100,0.1 to 10
